Results from BindingDB's records for doi:10.1016/j.bmcl.2006.08.033 (University of Maryland, 2006).

Target: Guanine deaminase (Oryctolagus cuniculus)
Experiment: Inhibition of rabbit liver guanase

| Ki [µM] | Structure (SMILES) |
| --- | --- |
| 20.1 | O=C1NC(CO)C(=O)Nc2c1ncn2Cc1ccccc1 (configuration not stated) [3-benzyl-4,5,7,8-tetrahydro-6-hydroxymethyl-6H-imidazo[4,5-e][1,4]diazepine-5,8-dione] |
| 53.6 | O=C1NC(CO)C(=O)Nc2nc[nH]c21 (configuration not stated) [4,5,7,8-tetrahydro-6-hydroxymethyl-6H-imidazo[4,5-e][1,4]diazepine-5,8-dione] |
